Assay results taken from PubChem BioAssay (NCI).
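Grown in 96-well plates, cells were treated for 48 hours with each compound at five concentrations. Insufficient inhibition: endpoint recorded as highest concentration tested. GI50 is the concentration that inhibits growth by half. Definition used: TGI = concentration required for complete inhibition of growth.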

Experiments:
Assay in all cases: NCI anticancer screen, dose series, 48 h
[1] = system: OVCAR-4 ovarian
[2] = system: UACC-62 melanoma
[3] = system: UACC-257 melanoma
[4] = system: SK-MEL-28 melanoma
[5] = system: U251 CNS
[6] = system: M14 melanoma
[7] = system: CCRF-CEM leukemia
[8] = system: CAKI-1 renal
[9] = system: NCI/ADR-RES ovarian
[10] = system: ACHN renal
[11] = system: COLO 205 colon
[12] = system: HL-60(TB) leukemia
[13] = system: SF-539 CNS
[14] = system: SF-295 CNS
[15] = system: DU-145 prostate
[16] = system: OVCAR-8 ovarian
[17] = system: T-47D breast
[18] = system: MCF7 breast
[19] = system: NCI-H226 lung
[20] = system: 786-0 renal
[21] = system: K-562 leukemia
[22] = system: OVCAR-3 ovarian
[23] = system: HCT-116 colon
[24] = system: SW-620 colon
[25] = system: BT-549 breast
[26] = system: A549 NSCLC
[27] = system: HS 578T breast
[28] = system: UO-31 renal
[29] = system: RXF 393 renal
[30] = system: HOP-62 NSCLC
[31] = system: NCI-H23 lung
[32] = system: NCI-H460 lung
[33] = system: MDA-MB-231 breast
[34] = system: SNB-75 CNS
[35] = system: A498 renal
[36] = system: TK-10 renal
[37] = system: SN12C renal
[38] = system: MALME-3M melanoma
[39] = system: MOLT-4 leukemia
[40] = system: SK-OV-3 ovarian
[41] = system: NCI-H522 lung
[42] = system: PC-3 prostate
[43] = system: KM12 colon
[44] = system: HOP-92 NSCLC
[45] = system: SK-MEL-2 melanoma
[46] = system: SK-MEL-5 melanoma
[47] = system: MDA-MB-435
[48] = system: HCC-2998 colon
[49] = system: RPMI-8226 leukemia
[50] = system: EKVX NSCLC
[51] = system: HCT-15 colon
[52] = system: SNB-19 CNS
[53] = system: LOX IMVI melanoma
[54] = system: SF-268 CNS
[55] = system: OVCAR-5 ovarian
[56] = system: HT29 colon
[57] = system: IGROV1 ovarian
[58] = system: SR leukemia

CCOC(=O)CC1C(COC(=O)NC)OC(n2cnc3c(NC(=O)Nc4ccccc4)ncnc32)C1O[Si](C)(C)C(C)(C)C (stereo not drawn)
GI50 [1]: 10.7 µM
TGI [1]: > 100 µM
GI50 [2]: 15.8 µM
TGI [2]: > 100 µM
GI50 [3]: 20.8 µM
TGI [3]: > 100 µM
GI50 [4]: 7.77 µM
TGI [4]: > 100 µM
GI50 [5]: 7.57 µM
TGI [5]: 32.3 µM
GI50 [6]: 6.37 µM
TGI [6]: 95.7 µM
GI50 [7]: 3.23 µM
TGI [7]: > 100 µM
GI50 [8]: 3.72 µM
TGI [8]: 38.8 µM
GI50 [9]: 9.18 µM
TGI [9]: 30.6 µM
GI50 [10]: 5.92 µM
TGI [10]: > 100 µM
GI50 [11]: 7.7 µM
TGI [11]: 20.2 µM
GI50 [12]: 1.39 µM
TGI [12]: 3.78 µM
GI50 [13]: 11.5 µM
TGI [13]: 26.4 µM
GI50 [14]: 2.83 µM
TGI [14]: 15.1 µM
GI50 [15]: 5.21 µM
TGI [15]: 28.2 µM
GI50 [16]: 10.3 µM
TGI [16]: > 100 µM
GI50 [17]: 4.95 µM
TGI [17]: 84.7 µM
GI50 [18]: 3.37 µM
TGI [18]: 17.1 µM
GI50 [19]: 11.8 µM
TGI [19]: 36.6 µM
GI50 [20]: 7.94 µM
TGI [20]: 21.5 µM
GI50 [21]: 3.09 µM
TGI [21]: > 100 µM
GI50 [22]: 2.42 µM
TGI [22]: 5.6 µM
GI50 [23]: 2.33 µM
TGI [23]: 5.38 µM
GI50 [24]: 4.59 µM
TGI [24]: 78.1 µM
GI50 [25]: 2.07 µM
TGI [25]: 6.71 µM
GI50 [26]: 6.93 µM
TGI [26]: > 100 µM
GI50 [27]: 3.39 µM
TGI [27]: 14.7 µM
GI50 [28]: 5.7 µM
TGI [28]: 55.4 µM
GI50 [29]: 2.94 µM
TGI [29]: 12.4 µM
GI50 [30]: 14.7 µM
TGI [30]: 77.7 µM
GI50 [31]: 12.9 µM
TGI [31]: 53 µM
GI50 [32]: 4.45 µM
TGI [32]: 17.2 µM
GI50 [33]: 17.5 µM
TGI [33]: > 100 µM
GI50 [34]: 10.3 µM
TGI [34]: 50.2 µM
GI50 [35]: 4.65 µM
TGI [35]: 21.4 µM
GI50 [36]: 10.7 µM
TGI [36]: 50 µM
GI50 [37]: 2.17 µM
TGI [37]: 5.19 µM
GI50 [38]: 3.34 µM
TGI [38]: 33.1 µM
GI50 [39]: 1.99 µM
TGI [39]: 5.74 µM
GI50 [40]: 40.4 µM
TGI [40]: > 100 µM
GI50 [41]: 9.58 µM
TGI [41]: > 100 µM
GI50 [42]: 2.87 µM
TGI [42]: 25.4 µM
GI50 [43]: 3.21 µM
TGI [43]: 10.7 µM
GI50 [44]: 6.52 µM
TGI [44]: 28.9 µM
GI50 [45]: 13.2 µM
TGI [45]: 57.3 µM
GI50 [46]: 5.7 µM
TGI [46]: 18.6 µM
GI50 [47]: 3.26 µM
TGI [47]: > 100 µM
GI50 [48]: 8.76 µM
TGI [48]: 28.8 µM
GI50 [49]: 2.16 µM
TGI [49]: 5.48 µM
GI50 [50]: 3.39 µM
TGI [50]: > 100 µM
GI50 [51]: 11.7 µM
TGI [51]: > 100 µM
GI50 [52]: 49.2 µM
TGI [52]: > 100 µM
GI50 [53]: 7.78 µM
TGI [53]: 23 µM
GI50 [54]: 5.06 µM
TGI [54]: 33.8 µM
GI50 [55]: 12.8 µM
TGI [55]: 39.7 µM
GI50 [56]: 3.97 µM
TGI [56]: 17.7 µM
GI50 [57]: 13.7 µM
TGI [57]: > 100 µM

COc1ccc(C(=O)c2cc3c(N)c(C(=O)Nc4ccc(C)cc4)sc3nc2C)cc1
GI50 [1]: 5.55 µM
TGI [1]: > 100 µM
GI50 [2]: 12.2 µM
TGI [2]: > 100 µM
GI50 [3]: 20.4 µM
TGI [3]: > 100 µM
GI50 [4]: 13.6 µM
TGI [4]: > 100 µM
GI50 [5]: 3.6 µM
TGI [5]: 28.8 µM
GI50 [6]: 1.99 µM
TGI [6]: 62.9 µM
GI50 [7]: 3.76 µM
TGI [7]: > 100 µM
GI50 [8]: 2.35 µM
TGI [8]: 20.4 µM
GI50 [9]: 2.55 µM
TGI [9]: 15.4 µM
GI50 [10]: 5.28 µM
TGI [10]: 29.2 µM
GI50 [11]: 3.47 µM
TGI [11]: > 100 µM
GI50 [12]: 2.78 µM
TGI [12]: 10.3 µM
GI50 [13]: 2.5 µM
TGI [13]: 9.38 µM
GI50 [58]: 0.525 µM
TGI [58]: > 100 µM
GI50 [14]: 2.51 µM
TGI [14]: 15 µM
GI50 [15]: 3.63 µM
TGI [15]: 27.4 µM
GI50 [16]: 5.25 µM
TGI [16]: > 100 µM
GI50 [17]: 4.78 µM
TGI [17]: 91.7 µM
GI50 [18]: 1.43 µM
TGI [18]: > 100 µM
GI50 [19]: 4.22 µM
TGI [19]: 30.8 µM
GI50 [20]: 4.48 µM
TGI [20]: 19.1 µM
GI50 [21]: 1.28 µM
TGI [21]: > 100 µM
GI50 [22]: 2.25 µM
TGI [22]: 7.18 µM
GI50 [23]: 3.19 µM
TGI [23]: 22.2 µM
GI50 [24]: 3.61 µM
TGI [24]: > 100 µM
GI50 [25]: 4.83 µM
TGI [25]: 41.8 µM
GI50 [26]: 3.96 µM
TGI [26]: > 100 µM
GI50 [27]: 2.29 µM
TGI [27]: 17.9 µM
GI50 [28]: 3.11 µM
TGI [28]: 27.3 µM
GI50 [29]: 2.48 µM
TGI [29]: 9.38 µM
GI50 [30]: 4.43 µM
TGI [30]: 31.5 µM
GI50 [31]: 6.24 µM
TGI [31]: 44 µM
GI50 [32]: 2.99 µM
TGI [32]: 14.2 µM
GI50 [33]: 2.7 µM
TGI [33]: 13.2 µM
GI50 [34]: 0.571 µM
TGI [34]: 5.99 µM
GI50 [35]: 1.5 µM
TGI [35]: 9.59 µM
GI50 [36]: 6.81 µM
TGI [36]: 25.2 µM
GI50 [37]: 6.93 µM
TGI [37]: > 100 µM
GI50 [38]: 4.46 µM
TGI [38]: 39.3 µM
GI50 [39]: 3.92 µM
TGI [39]: > 100 µM
GI50 [40]: 5.59 µM
TGI [40]: 33.1 µM
GI50 [41]: 2.06 µM
TGI [41]: 11.2 µM
GI50 [42]: 4.2 µM
TGI [42]: > 100 µM
GI50 [43]: 2.44 µM
TGI [43]: > 100 µM
GI50 [44]: 2.15 µM
TGI [44]: 21.9 µM
GI50 [45]: 4.04 µM
TGI [45]: 34.7 µM
GI50 [46]: 3.14 µM
TGI [46]: 11.5 µM
GI50 [47]: 0.275 µM
TGI [47]: 1.35 µM
GI50 [48]: 4.01 µM
TGI [48]: > 100 µM
GI50 [50]: 5.59 µM
TGI [50]: > 100 µM
GI50 [51]: 1.27 µM
TGI [51]: > 100 µM
GI50 [52]: 4.22 µM
TGI [52]: 30.9 µM
GI50 [53]: 4.94 µM
TGI [53]: > 100 µM
GI50 [54]: 5.66 µM
TGI [54]: 48.7 µM
GI50 [55]: 7.13 µM
TGI [55]: > 100 µM
GI50 [56]: 2.74 µM
TGI [56]: 15.2 µM
GI50 [57]: 6.25 µM
TGI [57]: 38.2 µM
